What all share (format): functional
Assay [1] concerns Staphylococcus aureus. The assay is described as follows: Antibacterial activity against erythromycin-susceptible Staphylococcus aureus Smith OC4172.
Assay [2] relates to Staphylococcus aureus. The assay is described as follows: Antibacterial activity against erythromycin-susceptible Staphylococcus aureus Smith OC4172 in presence of 50% mouse serum.
The subject of assay [3] is Streptococcus pneumoniae. The assay is described as follows: Antibacterial activity against erythromycin-susceptible Streptococcus pneumoniae OC9132.
The test system of assay [4] is Staphylococcus haemolyticus. The assay is described as follows: Antibacterial activity against erythromycin resistant Staphylococcus haemolyticus OC3882 containing erm(C).
Assay [5] deals with Streptococcus pneumoniae. The assay is described as follows: Antibacterial activity against erythromycin-resistant Streptococcus pneumoniae OC4051 containing erm(B).
In assay [6] the test system is Streptococcus pneumoniae. The assay can be described thus: Antibacterial activity against erythromycin-resistant Streptococcus pneumoniae OC4421 containing mef(A).
The test system of assay [7] is Haemophilus influenzae. The assay is described as follows: Antibacterial activity against telithromycin-susceptible Haemophilus influenzae ATCC 49766.

≈ marks a conversion by molar mass, not a printed value. Some results are limits rather than exact numbers.

Consider `CC[C@H]1OC(=O)[C@H](C)C(=O)[C@H](C)[C@@H](O[C@@H]2O[C@H](C)C[C@H](N(C)C)[C@H]2O)[C@](C)(OC(=O)NNCCc2ccc(-c3ncccn3)cc2)C[C@@H](C)C(=O)[C@H](C)[C@H]2NC(=O)O[C@@]21C`, for which the MIC was found to be 0.25 µg/mL (≈ 0.298 µM) in assay [1]; 0.25 µg/mL in assay [2]; 0.03 µg/mL (≈ 0.0358 µM) in assay [3]; 0.25 µg/mL (≈ 0.298 µM) in assay [4]; 0.12 µg/mL (≈ 0.143 µM) in assay [5]; 0.12 µg/mL (≈ 0.143 µM) in assay [6]. Further, in assay [7], the MIC was determined as 4 µg/mL (≈ 4.77 µM).

In the case of `CC[C@H]1OC(=O)[C@H](C)[C@@H](O[C@H]2C[C@@](C)(OC)[C@@H](O)[C@H](C)O2)[C@H](C)[C@@H](O[C@@H]2O[C@H](C)C[C@H](N(C)C)[C@H]2O)[C@](C)(O)C[C@@H](C)C(=O)[C@H](C)[C@@H](O)[C@]1(C)O` [ERYTHROMYCIN], the MIC in assay [1] was 1 µg/mL (≈ 1.36 µM); in assay [2], 0.06 µg/mL; in assay [3], 0.06 µg/mL (≈ 0.0818 µM); in assay [4], more than 16 µg/mL; in assay [5] it was more than 16 µg/mL; in assay [6], 4 µg/mL (≈ 5.45 µM). The MIC in assay [7] amounted to 8 µg/mL (≈ 10.9 µM).

`CC[C@H]1OC(=O)[C@H](C)C(=O)[C@H](C)[C@@H](O[C@@H]2O[C@H](C)C[C@H](N(C)C)[C@H]2O)[C@](C)(OC(=O)NN(CC)CCc2ccc(-c3ncccn3)cc2)C[C@@H](C)C(=O)[C@H](C)[C@H]2NC(=O)O[C@@]21C`: the MIC turned out to be 0.25 µg/mL (≈ 0.288 µM) in assay [1]; 2 µg/mL in assay [2]; 0.12 µg/mL (≈ 0.138 µM) in assay [3]; 0.5 µg/mL (≈ 0.577 µM) in assay [4]; 0.12 µg/mL (≈ 0.138 µM) in assay [5]; 0.25 µg/mL (≈ 0.288 µM) in assay [6]. Further, the MIC in assay [7] was found to be 8 µg/mL (≈ 9.23 µM).

`CC[C@H]1OC(=O)[C@H](C)C(=O)[C@H](C)[C@@H](O[C@@H]2O[C@H](C)C[C@H](N(C)C)[C@H]2O)[C@](C)(OC(=O)NN(C)Cc2ccc(-c3ncccn3)cc2)C[C@@H](C)C(=O)[C@H](C)[C@H]2NC(=O)O[C@@]21C`: the MIC in assay [1] is 2 µg/mL (≈ 2.38 µM); in assay [2], 8 µg/mL; in assay [3], 0.06 µg/mL (≈ 0.0715 µM); in assay [4], 2 µg/mL (≈ 2.38 µM); in assay [5] it was 0.5 µg/mL (≈ 0.596 µM); in assay [6] it was 1 µg/mL (≈ 1.19 µM). Also, the MIC in assay [7] is 4 µg/mL (≈ 4.77 µM).

Consider `CC[C@H]1OC(=O)[C@H](C)C(=O)[C@H](C)[C@@H](O[C@@H]2O[C@H](C)C[C@H](N(C)C)[C@H]2O)[C@](C)(OC(=O)N(C)N(C)CCc2ccc(-c3cnccn3)cc2)C[C@@H](C)C(=O)[C@H](C)[C@H]2NC(=O)O[C@@]21C`, for which the MIC is 2 µg/mL (≈ 2.31 µM) in assay [1]; 4 µg/mL in assay [2]; 0.06 µg/mL (≈ 0.0692 µM) in assay [3]; 8 µg/mL (≈ 9.23 µM) in assay [4]; 0.5 µg/mL (≈ 0.577 µM) in assay [5]; 0.5 µg/mL (≈ 0.577 µM) in assay [6]. In addition, in assay [7], the MIC amounted to 16 µg/mL (≈ 18.5 µM).

`CC[C@H]1OC(=O)[C@H](C)C(=O)[C@H](C)[C@@H](O[C@@H]2O[C@H](C)C[C@H](N(C)C)[C@H]2O)[C@](C)(OC(=O)NNCCc2cnc3ccccc3c2)C[C@@H](C)C(=O)[C@H](C)[C@H]2NC(=O)O[C@@]21C`: the MIC was found to be 0.5 µg/mL (≈ 0.616 µM) in assay [1]; 1 µg/mL in assay [2]; 0.03 µg/mL (≈ 0.0369 µM) in assay [3]; 0.5 µg/mL (≈ 0.616 µM) in assay [4]; 0.06 µg/mL (≈ 0.0739 µM) in assay [5]; 0.25 µg/mL (≈ 0.308 µM) in assay [6]. Also, in assay [7], the MIC came out at 0.5 µg/mL (≈ 0.616 µM).

For the molecule `CC[C@H]1OC(=O)[C@H](C)C(=O)[C@H](C)[C@@H](O[C@@H]2O[C@H](C)C[C@H](N(C)C)[C@H]2O)[C@](C)(OC(=O)NN(C)C/C=C/c2ccc(-c3ncccn3)cc2)C[C@@H](C)C(=O)[C@H](C)[C@H]2NC(=O)O[C@@]21C`, the MIC in assay [1] came out at 0.25 µg/mL (≈ 0.289 µM); in assay [2], 0.5 µg/mL; in assay [3], 0.03 µg/mL (≈ 0.0347 µM); in assay [4] it was 0.5 µg/mL (≈ 0.578 µM); in assay [5], 0.25 µg/mL (≈ 0.289 µM); in assay [6] it was 0.5 µg/mL (≈ 0.578 µM). In addition, the MIC in assay [7] was 8 µg/mL (≈ 9.25 µM).

Consider `CC[C@H]1OC(=O)[C@H](C)C(=O)[C@H](C)[C@@H](O[C@@H]2O[C@H](C)C[C@H](N(C)C)[C@H]2O)[C@](C)(OC(=O)NN(C)CCc2ccc(-c3cnccn3)cc2)C[C@@H](C)C(=O)[C@H](C)[C@H]2NC(=O)O[C@@]21C`, for which the MIC in assay [1] worked out at 0.25 µg/mL (≈ 0.293 µM); in assay [2], 0.5 µg/mL; in assay [3], 0.03 µg/mL (≈ 0.0352 µM); in assay [4], 0.5 µg/mL (≈ 0.586 µM); in assay [5], 0.06 µg/mL (≈ 0.0703 µM); in assay [6] it was 0.25 µg/mL (≈ 0.293 µM). In assay [7], this molecule returned an MIC of 2 µg/mL (≈ 2.34 µM).

Take `CC[C@H]1OC(=O)[C@H](C)C(=O)[C@H](C)[C@@H](O[C@@H]2O[C@H](C)C[C@H](N(C)C)[C@H]2O)[C@](C)(OC(=O)NN(C)CCc2ccc(-c3ncco3)cc2)C[C@@H](C)C(=O)[C@H](C)[C@H]2NC(=O)O[C@@]21C`: the MIC in assay [1] is 0.25 µg/mL (≈ 0.297 µM); in assay [2], 0.5 µg/mL; in assay [3], 0.03 µg/mL (≈ 0.0356 µM); in assay [4], 0.5 µg/mL (≈ 0.594 µM); in assay [5] it was 0.06 µg/mL (≈ 0.0713 µM); in assay [6], 0.12 µg/mL (≈ 0.143 µM). Moreover, in assay [7], the MIC amounted to 2 µg/mL (≈ 2.38 µM).

`CC[C@H]1OC(=O)[C@H](C)C(=O)[C@H](C)[C@@H](O[C@@H]2O[C@H](C)C[C@H](N(C)C)[C@H]2O)[C@](C)(OC(=O)NN)C[C@@H](C)C(=O)[C@H](C)[C@H]2NC(=O)O[C@@]21C`: the MIC was 8 µg/mL (≈ 12.2 µM) in assay [1]; 2 µg/mL in assay [2]; 0.5 µg/mL (≈ 0.761 µM) in assay [3]; 16 µg/mL (≈ 24.4 µM) in assay [4]; 8 µg/mL (≈ 12.2 µM) in assay [5]; 8 µg/mL (≈ 12.2 µM) in assay [6]. In addition, the MIC in assay [7] was found to be 8 µg/mL (≈ 12.2 µM).

As for `CC[C@H]1OC(=O)[C@H](C)C(=O)[C@H](C)[C@@H](O[C@@H]2O[C@H](C)C[C@H](N(C)C)[C@H]2O)[C@](C)(OC(=O)NN(C)CCCc2ccc(-c3ncccn3)cc2)C[C@@H](C)C(=O)[C@H](C)[C@H]2NC(=O)O[C@@]21C`, the MIC in assay [1] was found to be 0.5 µg/mL (≈ 0.577 µM); in assay [2], 1 µg/mL; in assay [3], 0.06 µg/mL (≈ 0.0692 µM); in assay [4] it was 1 µg/mL (≈ 1.15 µM); in assay [5] it was 0.5 µg/mL (≈ 0.577 µM); in assay [6], 0.5 µg/mL (≈ 0.577 µM). This molecule returned an MIC in assay [7] of 8 µg/mL (≈ 9.23 µM).

On to `CC[C@H]1OC(=O)[C@H](C)C(=O)[C@H](C)[C@@H](O[C@@H]2O[C@H](C)C[C@H](N(C)C)[C@H]2O)[C@](C)(OC(=O)NNCCc2ccc(-c3cnccn3)cc2)C[C@@H](C)C(=O)[C@H](C)[C@H]2NC(=O)O[C@@]21C`, for which the MIC in assay [1] was determined as 0.25 µg/mL (≈ 0.298 µM); in assay [2], 0.5 µg/mL; in assay [3] it was 0.03 µg/mL (≈ 0.0358 µM); in assay [4], 0.25 µg/mL (≈ 0.298 µM); in assay [5], 0.06 µg/mL (≈ 0.0715 µM); in assay [6], 0.25 µg/mL (≈ 0.298 µM). In assay [7], this molecule gave an MIC of 2 µg/mL (≈ 2.38 µM).

With `CC[C@H]1OC(=O)[C@H](C)C(=O)[C@H](C)[C@@H](O[C@@H]2O[C@H](C)C[C@H](N(C)C)[C@H]2O)[C@](C)(OC(=O)NN(C)CCc2cnc3ccccc3c2)C[C@@H](C)C(=O)[C@H](C)[C@H]2NC(=O)O[C@@]21C`, the MIC was 1 µg/mL (≈ 1.21 µM) in assay [1]; 2 µg/mL in assay [2]; 0.06 µg/mL (≈ 0.0726 µM) in assay [3]; 8 µg/mL (≈ 9.69 µM) in assay [4]; 0.12 µg/mL (≈ 0.145 µM) in assay [5]; 0.5 µg/mL (≈ 0.605 µM) in assay [6]. The MIC in assay [7] turned out to be 2 µg/mL (≈ 2.42 µM).

In the case of `CC[C@H]1OC(=O)[C@H](C)C(=O)[C@H](C)[C@@H](O[C@@H]2O[C@H](C)C[C@H](N(C)C)[C@H]2O)[C@](C)(OC(=O)N(C)NCCc2ccc(-c3cnccn3)cc2)C[C@@H](C)C(=O)[C@H](C)[C@H]2NC(=O)O[C@@]21C`, the MIC in assay [1] was determined as 0.5 µg/mL (≈ 0.586 µM); in assay [2] it was 2 µg/mL; in assay [3], 0.06 µg/mL (≈ 0.0703 µM); in assay [4], 2 µg/mL (≈ 2.34 µM); in assay [5] it was 0.12 µg/mL (≈ 0.141 µM); in assay [6] it was 0.5 µg/mL (≈ 0.586 µM). The MIC in assay [7] is 8 µg/mL (≈ 9.38 µM).

(Values after ChEMBL document CHEMBL1145302, “Synthesis and antibacterial activity of C6-carbazate ketolides” (2006).)
